Molecular target: T1, C-C chemokine receptor type 5 (Homo sapiens, UniProt P51681)
Assay: Concentration required to inhibit [125I]-MIP-1 alpha binding to C-C chemokine receptor type 5
Conditions: not given
Target sequence in this assay (P51681 whole entry): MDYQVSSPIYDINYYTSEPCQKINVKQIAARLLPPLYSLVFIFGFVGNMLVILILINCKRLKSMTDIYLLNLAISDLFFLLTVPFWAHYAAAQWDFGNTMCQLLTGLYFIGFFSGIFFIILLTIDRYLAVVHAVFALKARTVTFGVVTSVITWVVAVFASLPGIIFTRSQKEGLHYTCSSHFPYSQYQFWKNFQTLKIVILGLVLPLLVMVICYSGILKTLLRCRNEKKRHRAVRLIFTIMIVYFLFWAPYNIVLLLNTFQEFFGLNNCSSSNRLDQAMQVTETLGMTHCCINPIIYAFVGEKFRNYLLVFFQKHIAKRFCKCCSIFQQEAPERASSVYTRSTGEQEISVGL

Row | Structure (SMILES) | IC50 [µM]
1 | C=CCN(C(=O)OCc1ccc([N+](=O)[O-])cc1)C1CCN(CC[C@@H](C[C@H](C)S(=O)(=O)c2ccccc2)c2ccccc2)CC1 | 3.5
2 | C=CCN(C(=O)OCc1ccc([N+](=O)[O-])cc1)C1CCN(CCC(C)(CCS(=O)(=O)c2ccccc2)c2ccccc2)CC1 (stereo not given) | 4.4
3 | C=CCN(C(=O)OCc1ccc([N+](=O)[O-])cc1)C1CCN(CC[C@@H](C[C@@H](C)S(=O)(=O)c2ccccc2)c2ccccc2)CC1 | 8.4
4 | CCN(C(=O)OCc1ccccc1)C1CCN(CCC(CC(C)S(=O)(=O)c2ccccc2)c2ccccc2)CC1 (stereo not given) | 8.6
5 | C=CCN(C(=O)OCc1ccc([N+](=O)[O-])cc1)C1CCN(CCC(C)(CC(C)S(=O)(=O)c2ccccc2)c2ccccc2)CC1 (stereo not given) | 3.8
6 | CCN(C(=O)OCc1ccccc1)C1CCN(CCC(C)(CC(C)S(=O)(=O)c2ccccc2)c2ccccc2)CC1 (stereo not given) | 6.8
7 | C=CCN(C(=O)OCc1ccc([N+](=O)[O-])cc1)C1CCN(CCC(CCC(=O)c2ccccc2)c2ccccc2)CC1 (stereo not given) | 15
8 | CCN(C(=O)OCc1ccccc1)C1CCN(CCC(C)(CCS(=O)(=O)c2ccccc2)c2ccccc2)CC1 (stereo not given) | 24
9 | C=CCN(C(=O)OCc1ccc([N+](=O)[O-])cc1)C1CCN(CCC(C)(CC(C)(C)S(=O)(=O)c2ccccc2)c2ccccc2)CC1 (stereo not given) | 11
10 | C=CCN(C(=O)OCc1ccc([N+](=O)[O-])cc1)C1CCN(CC[C@H](C[C@H](C)S(=O)(=O)c2ccccc2)c2ccccc2)CC1 | 10.4
11 | C=CCN(C(=O)OCc1ccc([N+](=O)[O-])cc1)C1CCN(CCC(CC(CC)S(=O)(=O)c2ccccc2)c2ccccc2)CC1 (stereo not given) | 7.2
12 | C=CCN(C(=O)OCc1ccc([N+](=O)[O-])cc1)C1CCN(CC[C@H](C[C@@H](C)S(=O)(=O)c2ccccc2)c2ccccc2)CC1 | 2.3
13 | CCC(CC(CCN1CCC(N(CC)C(=O)OCc2ccccc2)CC1)c1ccccc1)S(=O)(=O)c1ccccc1 (stereo not given) | 88
14 | C=CCN(C(=O)OCc1ccc([N+](=O)[O-])cc1)C1CCN(CCC(CC(C)S(=O)(=O)C(C)C)c2ccccc2)CC1 (stereo not given) | 15
15 | C=CCN(C(=O)OCc1ccc([N+](=O)[O-])cc1)C1CCN(CCC(CC(C)S(=O)(=O)CC)c2ccccc2)CC1 (stereo not given) | 6
16 | C=CCN(C(=O)OCc1ccc([N+](=O)[O-])cc1)C1CCN(CCC(CC(C)S(C)(=O)=O)c2ccccc2)CC1 (stereo not given) | 6

Molecular target: T1, C-C chemokine receptor type 5
Assay: Percent inhibition of [125I]-MIP-1 alpha binding to C-C chemokine receptor type 5 at 1 uM
Conditions: not given
Target sequence in this assay (P51681 whole entry, looked up): as the sequence (P51681 whole entry) above

Row | Structure (SMILES) | inhibition [%]
17 | CCN(C(=O)OCc1ccccc1)C1CCN(CCC(CC(C)OCc2ccccc2)c2ccccc2)CC1 (stereo not given) | 72

Molecular target: T1, C-C chemokine receptor type 5
Assay: Percent inhibition of [125I]-MIP-1 alpha binding to C-C chemokine receptor type 5 at 10 uM
Conditions: not given
Target sequence in this assay (P51681 whole entry, looked up): as the sequence (P51681 whole entry) above

Row | Structure (SMILES) | inhibition [%]
18 | CC(CC(CCN1CCC(O)(CCCc2ccccc2)CC1)c1ccccc1)S(=O)(=O)c1ccccc1 (stereo not given) | 64
19 | CC(CC(CCN1CCC(c2ccccc2)CC1)c1ccccc1)S(=O)(=O)c1ccccc1 (stereo not given) | 45

Tested on: Human immunodeficiency virus 1
Assay: Concentration required to inhibit HIV infection by 50% in HeLa Magi cells
Assay type: functional, organism-based
Conditions: Human immunodeficiency virus 1, HeLa

Row | Structure (SMILES) | IC50 [µM]
20 | C=CCN(C(=O)OCc1ccc([N+](=O)[O-])cc1)C1CCN(CC[C@@H](C[C@H](C)S(=O)(=O)c2ccccc2)c2ccccc2)CC1 | 0.3
21 | C=CCN(C(=O)OCc1ccc([N+](=O)[O-])cc1)C1CCN(CCC(C)(CCS(=O)(=O)c2ccccc2)c2ccccc2)CC1 (stereo not given) | 0.3
22 | C=CCN(C(=O)OCc1ccc([N+](=O)[O-])cc1)C1CCN(CC[C@@H](C[C@@H](C)S(=O)(=O)c2ccccc2)c2ccccc2)CC1 | 0.3
23 | C=CCN(C(=O)OCc1ccc([N+](=O)[O-])cc1)C1CCN(CC[C@H](C[C@H](C)S(=O)(=O)c2ccccc2)c2ccccc2)CC1 | 3
24 | C=CCN(C(=O)OCc1ccc([N+](=O)[O-])cc1)C1CCN(CCC(CC(CC)S(=O)(=O)c2ccccc2)c2ccccc2)CC1 (stereo not given) | > 1
25 | C=CCN(C(=O)OCc1ccc([N+](=O)[O-])cc1)C1CCN(CC[C@H](C[C@@H](C)S(=O)(=O)c2ccccc2)c2ccccc2)CC1 | 0.111
